Assay results published in patent US20240269298A1, “PHOSPHONYL DERIVATIVE, AND COMPOSITION AND PHARMACEUTICAL APPLICATION THEREOF” (XIZANG HAISCO PHARMACEUTICAL CO., LTD., priority 2021, published 2024).
Like-named read-outs stand apart in the source and are kept apart here.

Legend:
[1] = tested on: NCI-H1975 (EGFR-L858R-T790M) cells; experiment: Inhibitory activity on proliferation of NCI-H1975 (EGFR-L858R-T790M) cells (CTG, 72 h); assay type: cell-based; details: Homo sapiens
Method in brief: (§1)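 Cells plated at 1000/well (NCI-H1975, RPMI1640+10% FBS) or 3000/well (A431, DMEM+10% FBS), dosed next day with compounds (0.1% DMSO final) for 72 h at 37 °C, 5% CO2. Viability by CTG luminescence, normalised to vehicle control; IC50 from nonlinear-regression dose-survival curves.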

A431 (EGFR-WT) cells = experiment: Inhibitory activity on proliferation of A431 (EGFR-WT) cells (CTG, 72 h); assay type: cell-based; details: Homo sapiens, A-431
Method in brief: as §1

[2] = read-out: IC50 (value in brackets)

SMILES | IC50 ([1]; read-out: IC50 (class symbol)) [nM] | IC50 [1, 2] [nM] | IC50 (A431 (EGFR-WT) cells) [nM]
CCn1cc(-c2cc(Nc3ncc(Br)c(Nc4ccc(-c5ccccc5)cc4P(C)(C)=O)n3)c(OC)cc2N2CCC(CN3CCN(c4ccc5c(c4)C(=O)N(C4CCC(=O)NC4=O)C5=O)CC3)CC2)cn1 (stereo not drawn) [Compound 111, 5-(4-((1-(4-((5-bromo-4-((3-(dimethylphosphoryl)-[1,1′-biphenyl]-4-yl)amino)pyrimidin-2-yl)amino)-2-(1-ethyl-1H-pyrazol-4-yl)-5-methoxyphenyl)piperidin-4-yl)methyl)piperazin-1-yl)-2-(2,6-dioxopiperidin-3-yl)isoindoline-1,3-dione] | 100 to 500 | 209 | ≥ 10000
COc1cc(N2CCC(C3CCN(CC4CCN(c5ccc6c(c5)C(=O)N(C5CCC(=O)NC5=O)C6=O)CC4)CC3)CC2)c(-c2cnn(C)c2)cc1Nc1ncc(Cl)c(Nc2ccc(-c3ccccc3)cc2P(C)(C)=O)n1 (stereo not drawn) [Compound 41, 5-(4-((1′-(4-((5-chloro-4-((3-(dimethylphosphoryl)-[1,1′-biphenyl]-4-yl)amino)pyrimidin-2-yl)amino)-5-methoxy-2-(1-methyl-1H-pyrazol-4-yl)phenyl)-[4,4′-bipiperidin]-1-yl)methyl)piperidin-1-yl)-2-(2,6-dioxopiperidin-3-yl)isoindoline-1,3-dione] | 100 to 500 | 353 | ≥ 10000
COc1cc(N2CCC(N3CCC(CN4CCN(c5ccc6c(c5)C(=O)N(C5CCC(=O)NC5=O)C6=O)CC4)CC3)CC2)c(C2CC2)cc1Nc1ncc(Br)c(Nc2ccc3nccnc3c2P(C)(C)=O)n1 (stereo not drawn) [Compound 24, 5-(4-((1′-(4-((5-bromo-4-((5-(dimethylphosphoryl)quinoxalin-6-yl)amino)pyrimidin-2-yl)amino)-2-cyclopropyl-5-methoxyphenyl)-[1,4′-bipiperidin]-4-yl)methyl)piperazin-1-yl)-2-(2,6-dioxopiperidin-3-yl)isoindoline-1,3-dione] | 100 to 500 | 163 | ≥ 10000
COc1cc(N2CCN(C[C@H]3CCN(c4ccc5c(c4)C(=O)N(C4CCC(=O)NC4=O)C5=O)C3)CC2)c(-c2cnn(C)c2)cc1Nc1ncc(Cl)c(Nc2ccc(C3CC3)cc2P(C)(C)=O)n1 (stereo partly drawn) [Compound 119, 5-((R)-3-((4-(4-((5-chloro-4-((4-cyclopropyl-2-(dimethylphosphoryl)phenyl)amino)pyrimidin-2-yl)amino)-5-methoxy-2-(1-methyl-1H-pyrazol-4-yl)phenyl)piperazin-1-yl)methyl)pyrrolidin-1-yl)-2-(2,6-dioxopiperidin-3-yl)isoindoline-1,3-dione] | < 100 | 29 | ≥ 10000
COc1cc(N2CCC(CN3CCCC4(CCN(c5ccc6c(c5)C(=O)N(C5CCC(=O)NC5=O)C6=O)CC4)C3)CC2)c(-c2cnn(C)c2)cc1Nc1ncc(Cl)c(Nc2ccc3nccnc3c2P(C)(C)=O)n1 (stereo not drawn) [Compound 1, 5-(2-((1-(4-((5-chloro-4-((5-(dimethylphosphoryl)quinoxalin-6-yl)amino)pyrimidin-2-yl)amino)-5-methoxy-2-(1-methyl-1H-pyrazol-4-yl)phenyl)piperidin-4-yl)methyl)-2,9-diazaspiro[5.5]undecan-9-yl)-2-(2,6-dioxopiperidin-3-yl)isoindoline-1,3-dione] | < 100 | 43 | ≥ 10000
COc1cc(N2CCC(CN3CCN(c4cc5c(cc4F)C(=O)N(C4CCC(=O)NC4=O)C5=O)CC3)CC2)c(-c2cnn(C)c2)cc1Nc1ncc(Cl)c(Nc2ccc(C3CC3)cc2P(C)(C)=O)n1 (stereo not drawn) [Compound 160, 5-(4-((1-(4-((5-chloro-4-((4-cyclopropyl-2-(dimethylphosphoryl)phenyl)amino)pyrimidin-2-yl)amino)-5-methoxy-2-(1-methyl-1H-pyrazol-4-yl)phenyl)piperidin-4-yl)methyl)piperazin-1-yl)-2-(2,6-dioxopiperidin-3-yl)-6-fluoroisoindoline-1,3-dione] | 100 to 500 | 152 | ≥ 10000
COc1cc(N2CCC(N3CCN(CC4CCN(c5ccc6c(c5)C(=O)N(C5CCC(=O)NC5=O)C6=O)C4)CC3)CC2)c(C2CC2)cc1Nc1ncc(Br)c(Nc2ccc3nccnc3c2P(C)(C)=O)n1 (stereo not drawn) [Compound 35, 5-(3-((4-(1-(4-((5-bromo-4-((5-(dimethylphosphoryl)quinoxalin-6-yl)amino)pyrimidin-2-yl)amino)-2-cyclopropyl-5-methoxyphenyl)piperidin-4-yl)piperazin-1-yl)methyl)pyrrolidin-1-yl)-2-(2,6-dioxopiperidin-3-yl)isoindoline-1,3-dione] | 100 to 500 | 114 | ≥ 10000
COc1cc(N2CCN(C3CCN(CC4CCN(c5ccc6c(c5)C(=O)N(C5CCC(=O)NC5=O)C6=O)CC4)CC3)CC2)c(-c2cnn(C)c2)cc1Nc1ncc(Br)c(Nc2ccc(-c3ccccc3)cc2P(C)(C)=O)n1 (stereo not drawn) [Compound 42, 5-(4-((4-(4-(4-((5-bromo-4-((3-(dimethylphosphoryl)-[1,1′-biphenyl]-4-yl)amino)pyrimidin-2-yl)amino)-5-methoxy-2-(1-methyl-1H-pyrazol-4-yl)phenyl)piperazin-1-yl)piperidin-1-yl)methyl)piperidin-1-yl)-2-(2,6-dioxopiperidin-3-yl)isoindoline-1,3-dione] | < 100 | 59 | ≥ 10000
COc1cc(N2CCN(C3CCN(CC4CCN(c5ccc6c(c5)C(=O)N(C5CCC(=O)NC5=O)C6=O)CC4)CC3)CC2)c(-c2cnn(C)c2)cc1Nc1ncc(Cl)c(Nc2ccc(-c3ccccc3)cc2P(C)(C)=O)n1 (stereo not drawn) [Compound 40, 5-(4-((4-(4-(4-((5-chloro-4-((3-(dimethylphosphoryl)-[1,1′-biphenyl]-4-yl)amino)pyrimidin-2-yl)amino)-5-methoxy-2-(1-methyl-1H-pyrazol-4-yl)phenyl)piperazin-1-yl)piperidin-1-yl)methyl)piperidin-1-yl)-2-(2,6-dioxopiperidin-3-yl)isoindoline-1,3-dione] | < 100 | 55 | ≥ 10000
COc1cc(N2CCC(CN3CCC4(CCCN(c5cc6c(cc5F)C(=O)N(C5CCC(=O)NC5=O)C6=O)C4)CC3)CC2)c(-c2cnn(C)c2)cc1Nc1ncc(Br)c(Nc2ccc(-c3ccccc3)cc2P(C)(C)=O)n1 (stereo not drawn) [Compound 61, 5-(9-((1-(4-((5-bromo-4-((3-(dimethylphosphoryl)-[1,1′-biphenyl]-4-yl)amino)pyrimidin-2-yl)amino)-5-methoxy-2-(1-methyl-1H-pyrazol-4-yl)phenyl)piperidin-4-yl)methyl)-2,9-diazaspiro[5.5]undecan-2-yl)-2-(2,6-dioxopiperidin-3-yl)-6-fluoroisoindoline-1,3-dione] | 100 to 500 | 176 | ≥ 10000
COc1cc(N2CCC(CN3CCN(c4ccc5c(c4)CN(C4CCC(=O)NC4=O)C5=O)CC3)CC2)c(-c2cnn(C)c2)cc1Nc1ncc(Cl)c(Nc2ccc(-c3ccccc3)cc2P(C)(C)=O)n1 (stereo not drawn) [Compound 105, 3-(5-(4-((1-(4-((5-chloro-4-((3-(dimethylphosphoryl)-[1,1′-biphenyl]-4-yl)amino)pyrimidin-2-yl)amino)-5-methoxy-2-(1-methyl-1H-pyrazol-4-yl)phenyl)piperidin-4-yl)methyl)piperazin-1-yl)-1-oxoisoindolin-2-yl)piperidine-2,6-dione] | < 100 | 58 | ≥ 10000
COc1cc(N2CCN(CC3CCN(c4ccc5c(c4)C(=O)N(C4CCC(=O)NC4=O)C5=O)CC3)CC2)c(-c2cnn(C)c2)cc1Nc1ncc(Br)c(Nc2ccc(C3CC3)cc2P(C)(C)=O)n1 (stereo not drawn) [Compound 125, 5-(4-((4-(4-((5-bromo-4-((4-cyclopropyl-2-(dimethylphosphoryl)phenyl)amino)pyrimidin-2-yl)amino)-5-methoxy-2-(1-methyl-1H-pyrazol-4-yl)phenyl)piperazin-1-yl)methyl)piperidin-1-yl)-2-(2,6-dioxopiperidin-3-yl)isoindoline-1,3-dione] | < 100 | 23 | ≥ 10000
COc1cc(N2CCN(C3CN(c4ccc5c(c4)C(=O)N(C4CCC(=O)NC4=O)C5=O)C3)CC2)c(-c2cnn(C)c2)cc1Nc1ncc(Br)c(Nc2ccc(C3CC3)cc2P(C)(C)=O)n1 (stereo not drawn) [Compound 150, 5-(3-(4-(4-((5-bromo-4-((4-cyclopropyl-2-(dimethylphosphoryl)phenyl)amino)pyrimidin-2-yl)amino)-5-methoxy-2-(1-methyl-1H-pyrazol-4-yl)phenyl)piperazin-1-yl)azetidin-1-yl)-2-(2,6-dioxopiperidin-3-yl)isoindoline-1,3-dione] | < 100 | 40 | ≥ 10000
COc1cc(N2CCC(CN3CCN(c4ccc5c(c4)C(=O)N([C@H]4CCC(=O)NC4=O)C5=O)CC3)CC2)c(-c2cnn(C)c2)cc1Nc1ncc(Br)c(Nc2ccc(C3CC3)cc2P(C)(C)=O)n1 [Compound 170] | < 100 | 47 | ≥ 10000
